Target: T1, hypothetical protein FLJ20297 (PG777) (Homo sapiens, UniProt Q9NXE4)
T1 construct: endogenous in cells; host or cells: Jurkat
Experiment: Isolation of proteins binding 3H-triptolide in Jurkat cells
Details: 3H-labeled Jurkat cell extract
Procedure: Triptolide target molecules were isolated and identified by purification and identification of molecules that bind ^3H-triptolide. Jurkat cells from expanding cultures were labeled with ^3H-triptolide by cultivation at 37° C. with 5% CO2 for a period of time between a few hours and overnight (usually 6-7 hours) and harvested by centrifugation and washing in ice-cold phosphate buffered saline. The cells (usually 1-3×10^6/ml) were generally labeled with ^3H-triptolide to a final concentration of 35 nM (100 μCi/200 ml of medium). Collected cell pellets were pooled, and the cells were either extracted and subjected to separation and purification at that time, or were frozen and stored at −20° C. as pellets for extraction and investigation at a later time.
The cells were extracted with M-per buffer (Pierce) and homogenized in presence of a protease inhibitor cocktail, sometimes including other reagents such as deoxyribonuclease (DNase). […] When the extracts components were found not to be sufficiently purified, enriched or reduced in number, 2D gel electrophoresis was employed, followed by fluorography for ^3H-associated radioactivity detection, and MALDI/MS of the corresponding peptides (after proteolysis) and peptide fingerprinting. […]

T1 sequence (Q9NXE4 whole entry): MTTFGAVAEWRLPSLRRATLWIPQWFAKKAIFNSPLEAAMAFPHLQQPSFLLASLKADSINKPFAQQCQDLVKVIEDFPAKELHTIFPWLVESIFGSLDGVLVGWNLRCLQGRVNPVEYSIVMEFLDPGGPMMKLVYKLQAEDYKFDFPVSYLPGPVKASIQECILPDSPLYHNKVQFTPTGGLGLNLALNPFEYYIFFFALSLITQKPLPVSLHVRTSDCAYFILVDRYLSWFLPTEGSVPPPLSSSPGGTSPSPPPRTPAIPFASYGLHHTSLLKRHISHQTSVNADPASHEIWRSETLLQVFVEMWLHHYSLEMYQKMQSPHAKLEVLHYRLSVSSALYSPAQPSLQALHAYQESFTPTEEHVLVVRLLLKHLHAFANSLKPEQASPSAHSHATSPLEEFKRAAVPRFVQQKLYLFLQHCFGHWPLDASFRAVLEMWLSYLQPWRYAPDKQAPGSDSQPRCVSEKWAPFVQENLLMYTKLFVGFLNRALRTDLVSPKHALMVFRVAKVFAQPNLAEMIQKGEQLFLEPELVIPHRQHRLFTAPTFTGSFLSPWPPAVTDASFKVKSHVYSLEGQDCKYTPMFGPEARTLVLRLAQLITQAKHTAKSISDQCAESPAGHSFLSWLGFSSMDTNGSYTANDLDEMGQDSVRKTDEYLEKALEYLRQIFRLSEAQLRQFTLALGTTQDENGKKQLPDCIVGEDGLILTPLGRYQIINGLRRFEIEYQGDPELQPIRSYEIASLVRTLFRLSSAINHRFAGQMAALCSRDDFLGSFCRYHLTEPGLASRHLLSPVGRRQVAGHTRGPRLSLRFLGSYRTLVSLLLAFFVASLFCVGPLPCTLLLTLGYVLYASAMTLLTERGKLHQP

Structure (SMILES): CC(C)[C@]12O[C@H]1[C@@H]1O[C@]13[C@]1(O[C@H]1C[C@H]1C4=C(CC[C@@]13C)C(=O)OC4)[C@@H]2O [triptolide]
- 3H-associated protein identified as triptolide target: FLJ20297: identification
